Measurements published in publication PMC6759397 (Journal of pharmaceutical sciences, 2019).
Read-outs that look alike come from different tables or passages of the source.

Columns and labels:
OATP1B1 [1] = target: T1, OATP1B1 (Homo sapiens, UniProt Q9Y6L6); conditions: read-out: reported Km for OATP1B1; HEK293 cells; cited from earlier work
T1 sequence (Q9Y6L6 1-691): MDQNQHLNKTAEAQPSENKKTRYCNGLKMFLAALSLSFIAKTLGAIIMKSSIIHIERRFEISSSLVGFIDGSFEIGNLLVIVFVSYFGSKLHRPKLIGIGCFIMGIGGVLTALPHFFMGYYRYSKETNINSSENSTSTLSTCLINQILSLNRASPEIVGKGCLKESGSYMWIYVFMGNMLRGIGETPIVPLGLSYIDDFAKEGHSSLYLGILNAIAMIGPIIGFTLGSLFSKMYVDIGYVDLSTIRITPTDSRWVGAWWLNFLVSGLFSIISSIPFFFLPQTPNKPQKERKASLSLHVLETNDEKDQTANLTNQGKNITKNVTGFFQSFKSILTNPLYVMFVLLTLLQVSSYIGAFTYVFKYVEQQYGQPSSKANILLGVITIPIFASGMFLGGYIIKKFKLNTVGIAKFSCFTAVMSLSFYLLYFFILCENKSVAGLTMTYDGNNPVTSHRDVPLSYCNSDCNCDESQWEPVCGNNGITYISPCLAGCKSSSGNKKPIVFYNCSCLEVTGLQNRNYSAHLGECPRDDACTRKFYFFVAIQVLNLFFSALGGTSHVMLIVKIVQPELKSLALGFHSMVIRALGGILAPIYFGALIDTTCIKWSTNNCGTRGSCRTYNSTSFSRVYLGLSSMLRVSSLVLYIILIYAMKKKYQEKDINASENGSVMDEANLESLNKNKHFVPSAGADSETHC

HEK293-OATP1B3 = conditions: 1 h pre-incubation, EVR 0.001–10 µM, SIR 0.01–5 µM
HEK293-OATP1B1 = assay: LDH assay; assay type: cell-based, human; conditions: 1 h pre-incubation, EVR 0.001–10 µM, SIR 0.01–5 µM
OATP1B1 [2] = target: T1, OATP1B1; conditions: substrate E1S; without pre-incubation; cited from earlier work
OATP1B3 [3] = target: T2, OATP1B3 (Homo sapiens, UniProt Q9NPD5); assay: Inhibition of OATP1B3-mediated [3H]-CCK-8 transport in HEK293-OATP1B3 cells; assay type: cell-based; conditions: washing; for OATP1B3-mediated transport ([3H]-CCK-8 accumulation): 1 h pre-incubation alone: EVR 0.2 µM, SIR 0.5 µM, INK-128 10 µM; for OATP1B3-mediated [3H]CCK-8 accumulation: 1 h pre-incubation with EVR 0.2 µM
T2 sequence (Q9NPD5 1-702): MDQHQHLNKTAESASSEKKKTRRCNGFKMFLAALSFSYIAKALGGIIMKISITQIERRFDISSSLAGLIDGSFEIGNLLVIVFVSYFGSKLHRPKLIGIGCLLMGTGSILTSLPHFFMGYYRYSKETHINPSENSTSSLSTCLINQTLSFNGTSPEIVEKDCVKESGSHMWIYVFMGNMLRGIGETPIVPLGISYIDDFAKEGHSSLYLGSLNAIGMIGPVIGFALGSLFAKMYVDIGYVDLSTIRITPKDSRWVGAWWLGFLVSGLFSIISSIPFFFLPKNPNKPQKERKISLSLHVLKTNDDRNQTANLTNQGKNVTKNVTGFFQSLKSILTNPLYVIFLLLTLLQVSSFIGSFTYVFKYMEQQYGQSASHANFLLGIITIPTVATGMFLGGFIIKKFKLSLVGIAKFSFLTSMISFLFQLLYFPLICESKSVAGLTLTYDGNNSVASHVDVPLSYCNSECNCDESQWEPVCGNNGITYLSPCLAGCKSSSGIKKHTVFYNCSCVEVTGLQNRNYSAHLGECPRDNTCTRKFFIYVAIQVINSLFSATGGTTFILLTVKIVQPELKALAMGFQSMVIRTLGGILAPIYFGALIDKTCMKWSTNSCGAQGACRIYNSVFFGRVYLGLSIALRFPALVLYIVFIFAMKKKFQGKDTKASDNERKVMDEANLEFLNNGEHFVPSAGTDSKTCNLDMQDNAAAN

[4] = cited from earlier work
OATP1B1 [5] = target: T1, OATP1B1; conditions: for OATP1B1-mediated transport ([3H]-E217βG accumulation): 1 h pre-incubation alone: EVR 0.2 µM, SIR 0.5 µM, INK-128 10 µM; for OATP1B1-mediated transport of [3H]-E1S after pre-incubation / OATP1B1-mediated transport of [3H]-rosuvastatin after pre-incubation: 1 h pre-incubation, EVR 0.1 or 0.2–10 µM, SIR 0.1–5 µM, 0.5 min, concentration-dependent, p<0.001; for OATP1B1-mediated transport of [3H]-E1S after pre-incubation: E1S 25 nM; for OATP1B1-mediated transport of [3H]-rosuvastatin after pre-incubation: rosuvastatin 20 nM
CYP3A4 = conditions: cited from earlier work
OATP1A2 = conditions: cited from earlier work
[6] = human erythrocytes, blood concentration range 5–100 ng/ml; cited from earlier work
CYP3A5 = conditions: cited from earlier work
mTOR C1 = assay: Immunoblot of phosphorylated p70S6K; assay type: cell-based, human; conditions: 1 h pre-incubation: EVR 0.2 µM, SIR 0.5 µM, INK-128 10 µM; vs vehicle control
OATP1B1 [7] = target: T1, OATP1B1; assay: Transport kinetics of OATP1B1-mediated E217βG transport in HEK293 cells; assay type: cell-based; conditions: co-incubation with 5 µM inhibitor, without pre-incubation
mTOR C2 = assay: Immunoblot of phosphorylated AKT; assay type: cell-based, human; conditions: 1 h pre-incubation: EVR 0.2 µM, SIR 0.5 µM, INK-128 10 µM; vs vehicle control
P-gp = conditions: Caco-2 monolayers; cited from earlier work
OATP1B1 [8] = target: T1, OATP1B1; assay: Static R-value model for OATP1B1-mediated DDI
[9] = cited from earlier work; remark: listed apart in the source
OATP1B3 [10] = target: T2, OATP1B3; conditions: cited from earlier work
[11] = IC50, [3H]-E1S (25 nM, 0.5 min), co-incubation
[12] = IC50, [3H]-E1S (25 nM, 0.5 min), pre+co-incubation (1 h pre-incubation)
[13] = IC50, [3H]-E217βG (1 µM, 2 min), co-incubation
[14] = IC50, [3H]-E217βG (1 µM, 2 min), pre+co-incubation (1 h pre-incubation)
[15] = IC50, [3H]-rosuvastatin (20 nM, 0.5 min), co-incubation
[16] = IC50, [3H]-rosuvastatin (20 nM, 0.5 min), pre+co-incubation (1 h pre-incubation)
[17] = from co-incubation IC50, rosuvastatin
[18] = from pre+co-incubation IC50, E217βG
[19] = from pre+co-incubation IC50, rosuvastatin

| OATP1B3-mediated transport ([3H]-CCK-8 accumulation) (OATP1B3 [3]) | OATP1B1-mediated transport ([3H]-E217βG accumulation) (OATP1B1 [5]; washing) | OATP1B1-mediated transport of [3H]-E1S after pre-incubation (OATP1B1 [5]) | OATP1B1-mediated transport of [3H]-rosuvastatin after pre-incubation (OATP1B1 [5]) | IC50 (OATP1B1 [5]; [11]) | IC50 (OATP1B1 [5]; [12]) | IC50 (OATP1B1 [5]; [13]) | IC50 (OATP1B1 [5]; [14]) | IC50 (OATP1B1 [5]; [15]) | IC50 (OATP1B1 [5]; [16]) | effect on Vmax of OATP1B1 (OATP1B1 [7]) | increase of Km of OATP1B1 (OATP1B1 [7]) | R (OATP1B1 [8]; [17]) | Compound | Km (OATP1B1 [1]) | toxicity (LDH assay) (HEK293-OATP1B3) | toxicity (LDH assay) (HEK293-OATP1B1) | IC50 (OATP1B1 [2]) | inhibition of OATP1A2 (OATP1A2) | amount of phosphorylated p70S6K at T389 (mTOR C1) | phosphorylation of AKT at S473 (mTOR C2) | other results |
| --- | --- | --- | --- | --- | --- | --- | --- | --- | --- | --- | --- | --- | --- | --- | --- | --- | --- | --- | --- | --- | --- |
| – | – | – | – | – | – | – | – | – | – | – | – | – | C[C@]12CC[C@@H]3c4ccc(OS(=O)(=O)O)cc4CC[C@H]3[C@@H]1CCC2=O [E1S, estrone-3-sulfate] | 0.46 µM | – | – | – | – | – | – | – |
| – | – | – | – | – | – | – | – | – | – | – | – | – | C[C@]12CC[C@@H]3c4ccc(O)cc4CC[C@H]3[C@@H]1CC[C@@H]2O[C@@H]1O[C@H](C(=O)O)[C@@H](O)[C@H](O)[C@H]1O [E217βG, estradiol 17 β-D-glucuronide] | 8.29 µM | – | – | – | – | – | – | – |
| 0.60 ± 0.03 fold of control | 0.67 ± 0.02 fold of control | significantly decreased | significantly decreased | 610 ± 80 nM | 160 ± 20 nM | 480 ± 70 nM | 230 ± 60 nM | 1580 ± 920 nM | 190 ± 70 nM | 1.2–1.7 fold vs. CTL | 6–10 fold | 1.03 (1.02–1.09) | CO[C@H]1C[C@@H]2CC[C@@H](C)[C@@](O)(O2)C(=O)C(=O)N2CCCC[C@H]2C(=O)O[C@H]([C@H](C)C[C@@H]2CC[C@@H](OCCO)[C@H](OC)C2)CC(=O)[C@H](C)/C=C(\C)[C@@H](O)[C@@H](OC)C(=O)[C@H](C)C[C@H](C)/C=C/C=C/C=C/1C [EVR, everolimus] | – | negligible toxicity | negligible toxicity | 4100 ± 1100 nM | inhibit | markedly reduced | did not inhibit | OATP1B3-mediated [3H]CCK-8 accumulation (OATP1B3 [3]; 4 h in EVR-free medium): 0.76 ± 0.04 fold of CTL; OATP1B3-mediated [3H]CCK-8 accumulation (OATP1B3 [3]; 6 h in EVR-free medium): 0.73 ± 0.04 fold of CTL; OATP1B3-mediated [3H]CCK-8 accumulation (OATP1B3 [3]; 22 h in EVR-free medium): 0.81 ± 0.06 fold of CTL; OATP1B3-mediated transport of [3H]CCK-8 (OATP1B3 [3]; after 1 h pre-incubation with EVR 0.2 µM): 0.76 ± 0.05 fold of control; Vss [4]: 1.55 (CV 36.0%) L/kg; steady-state AUC vs single dose AUC [4]: approximately 1.5 fold higher; time to steady state ([4]; multiple doses, 10 mg daily): around 7 days; Ki (OATP1B1 [5]): 22 nM; OATP1B1-mediated rosuvastatin accumulation (OATP1B1 [5]; 1 h pre-incubation with EVR 0.2 µM, washing, 4 h in fresh EVR-free medium): 0.87 ± 0.03 fold of CTL; OATP1B1-mediated transport of [3H]rosuvastatin (OATP1B1 [5]; after 1 h pre-incubation with EVR 0.2 µM, washing): 0.54 ± 0.07 fold of control; Ki (CYP3A4; CYP3A4): 90 nM; fu,mic (CYP3A4): 0.14; erythrocyte binding [6]: approximately 85%; Ki (CYP3A5; CYP3A5): 90 nM; fu,mic (CYP3A5): 0.14; basolateral-to-apical vs apical-to-basolateral transport (P-gp): ~ 20 fold; R (OATP1B1 [8]; [18]): 1.19 (1.16–1.26); R (OATP1B1 [8]; [19]): 1.23 (1.10–1.42); Compound type [9]: Neutral |
| did not significantly affect | did not significantly affect | – | – | – | – | – | – | – | – | – | – | – | CC(C)n1nc(-c2ccc3oc(N)nc3c2)c2c(N)ncnc21 [INK-128] | – | – | – | – | – | markedly reduced | markedly reduced | – |
| 0.49 ± 0.03 fold of control | 0.60 ± 0.05 fold of control | significantly decreased | significantly decreased | 830 ± 100 nM | 650 ± 120 nM | 640 ± 160 nM | 220 ± 40 nM | 560 ± 300 nM | 320 ± 110 nM | 1.2–1.7 fold vs. CTL | 6–10 fold | 1.00 (1.00–1.03) | CO[C@H]1C[C@@H]2CC[C@@H](C)[C@@](O)(O2)C(=O)C(=O)N2CCCC[C@H]2C(=O)O[C@H]([C@H](C)C[C@@H]2CC[C@@H](O)[C@H](OC)C2)CC(=O)[C@H](C)/C=C(\C)[C@@H](O)[C@@H](OC)C(=O)[C@H](C)C[C@H](C)/C=C/C=C/C=C/1C [SIR, sirolimus] | – | negligible toxicity | negligible toxicity | 9800 ± 1100 nM | inhibit | markedly reduced | did not inhibit | time to steady state ([4]; multiple twice daily doses of 0.5–6.5 mg/m^2, stable renal transplant patients): 5 to 7 days; R (OATP1B1 [8]): 1.00 (1.00–1.01); R (OATP1B1 [8]; [18]): 1.01 (1.01–1.02); R (OATP1B1 [8]; [19]): 1.01 (1.01–1.03); R (OATP1B1 [8]; from the previously published co-incubation IC50 (E1S, ref 24)): 1.00 |
| – | – | – | – | – | – | – | – | – | – | – | – | – | cholecystokinin 8 [CCK-8] | – | – | – | – | – | – | – | Km (OATP1B3 [10]): 3.8 µM |
